# ChEMBL document CHEMBL1777720, “Novel, potent, and orally bioavailable phosphinic acid inhibitors of the hepatitis C virus NS3 protease” (Bioorg Med Chem Lett, 2011)
# Experiments:
# [1] = Oral bioavailability in dog at 3 mg/kg; type: ADME, organism-based, Canis lupus familiaris; settings: in vivo
# [2] = Clearance in dog at 1 mg/kg, iv; type: ADME, organism-based, Canis lupus familiaris; design: dose 1 mg/kg, route intravenous; settings: in vivo
# Hepatitis C virus = test: Antiviral activity against HCV genotype 1b infected in Huh7 cells assessed as inhibition of viral replication by cell-based replicon assay; type: functional, organism-based, Hepacivirus hominis; settings: Huh-7
# [3] = Inhibition of HCV 1a NS3/4A protease; design: species or system Hepatitis C virus subtype 1a
# [4] = Clearance in rat at 0.4 mg/kg, iv; type: ADME, organism-based; design: dose 0.4 mg/kg, route intravenous; settings: in vivo
# [5] = Oral bioavailability in rat at 10.7 mg/kg, po; type: ADME, organism-based; settings: in vivo
# [6] = Oral bioavailability in dog at 4 mg/kg; type: ADME, organism-based, Canis lupus familiaris; settings: in vivo
# [7] = Clearance in dog at 0.5 mg/kg, iv; type: ADME, organism-based, Canis lupus familiaris; design: dose 0.5 mg/kg, route intravenous; settings: in vivo
smiles,measurement,setting,value
C=C[C@@H]1C[C@]1(NC(=O)[C@@H]1C[C@@H](Oc2cc(-c3csc(NC(C)C)n3)nc3cc(OC)ccc23)CN1C(=O)[C@@H](NC(=O)OC1CCCC1)C(C)(C)C)P(=O)(O)O,bioavailability,[1],0.5%
same,clearance,[2],11.2 mL/min/kg
C=C[C@@H]1C[C@]1(NC(=O)[C@@H]1C[C@@H](Oc2cc(-c3csc(NC(C)C)n3)nc3cc(OC)ccc23)CN1C(=O)[C@@H](NC(=O)OC1CCCC1)C(C)(C)C)P(=O)(O)CC,EC50,Hepatitis C virus,390 nM
same,IC50,[3],8 nM
COc1ccc2c(O[C@@H]3C[C@H]4C(=O)N[C@]5(P(=O)(O)O)C[C@H]5/C=C/CCCCC[C@H](NC(=O)OC5CCCC5)C(=O)N4C3)cc(-c3csc(NC(C)C)n3)nc2c1,EC50,Hepatitis C virus,5 nM
same,IC50,[3],1 nM
C=C[C@@H]1C[C@]1(NC(=O)[C@@H]1C[C@@H](Oc2cc(-c3csc(NC(C)C)n3)nc3cc(OC)ccc23)CN1C(=O)[C@@H](NC(=O)OC1CCCC1)C(C)(C)C)P(C)(=O)O,clearance,[4],28.7 mL/min/kg
same,bioavailability,[5],0.4%
same,EC50,Hepatitis C virus,69 nM
same,IC50,[3],6 nM
C=C[C@@H]1C[C@]1(NC(=O)[C@@H]1C[C@@H](Oc2cc(-c3csc(NC(C)C)n3)nc3cc(OC)ccc23)CN1C(=O)[C@@H](NC(=O)OC1CCCC1)C(C)(C)C)P(=O)(O)C(C)C,EC50,Hepatitis C virus,3080 nM
same,IC50,[3],86 nM
C=C[C@@H]1C[C@]1(NC(=O)[C@@H]1C[C@@H](Oc2cc(-c3csc(NC(C)C)n3)nc3cc(OC)ccc23)CN1C(=O)[C@@H](NC(=O)OC1CCCC1)C(C)(C)C)P(=O)(O)c1ccccc1,EC50,Hepatitis C virus,2650 nM
same,IC50,[3],44 nM
C=C[C@@H]1C[C@]1(NC(=O)[C@@H]1C[C@@H](Oc2cc(-c3csc(NC(C)C)n3)nc3cc(OC)ccc23)CN1C(=O)[C@@H](NC(=O)OC1CCCC1)C(C)(C)C)P(=O)(O)CCCC,EC50,Hepatitis C virus,49 nM
same,IC50,[3],8 nM
C=C[C@@H]1C[C@]1(NC(=O)[C@@H]1C[C@@H](Oc2cc(-c3csc(NC(C)C)n3)nc3cc(OC)ccc23)CN1C(=O)[C@@H](NC(=O)OC1CCCC1)C(C)(C)C)P(=O)(O)Cc1ccccc1Cl,EC50,Hepatitis C virus,311 nM
same,IC50,[3],6 nM
COc1ccc2c(O[C@@H]3C[C@H]4C(=O)N[C@]5(P(=O)(O)Cc6ccccc6OC)C[C@H]5/C=C/CCCCC[C@H](NC(=O)OC5CCCC5)C(=O)N4C3)cc(-c3csc(NC(C)C)n3)nc2c1,clearance,[2],17.3 mL/min/kg
same,EC50,Hepatitis C virus,9 nM
same,IC50,[3],3 nM
COc1ccc2c(O[C@@H]3C[C@H]4C(=O)N[C@]5(P(=O)(O)Cc6ccccc6OC)C[C@H]5CCCCCCC[C@H](NC(=O)OC5CCCC5)C(=O)N4C3)cc(-c3csc(NC(C)C)n3)nc2c1,clearance,[2],5.33 mL/min/kg
same,EC50,Hepatitis C virus,7 nM
same,IC50,[3],3 nM
COc1ccc2c(O[C@@H]3C[C@H]4C(=O)N[C@]5(C(=O)O)C[C@H]5C=CCCCCC[C@H](NC(=O)OC5CCCC5)C(=O)N4C3)cc(-c3csc(NC(C)C)n3)nc2c1 [CILUPREVIR],EC50,Hepatitis C virus,1 nM
same,IC50,[3],1 nM
COc1ccc2c(O[C@@H]3C[C@H]4C(=O)N[C@]5(P(=O)(O)Cc6ccccc6Cl)C[C@H]5/C=C/CCCCC[C@H](NC(=O)OC5CCCC5)C(=O)N4C3)cc(-c3csc(NC(C)C)n3)nc2c1,clearance,[2],9.33 mL/min/kg
same,EC50,Hepatitis C virus,5 nM
same,IC50,[3],1 nM
COc1ccc2c(O[C@@H]3C[C@H]4C(=O)N[C@]5(P(=O)(O)Cc6ccccc6)C[C@H]5CCCCCCC[C@H](NC(=O)OC5CCCC5)C(=O)N4C3)cc(-c3csc(NC(C)C)n3)nc2c1,bioavailability,[6],6.4%
same,clearance,[2],6 mL/min/kg
same,EC50,Hepatitis C virus,5 nM
same,IC50,[3],6 nM
COc1ccc2c(O[C@@H]3C[C@H]4C(=O)N[C@]5(P(=O)(O)Cc6ccccc6)C[C@H]5/C=C/CCCCC[C@H](NC(=O)OC5CCCC5)C(=O)N4C3)cc(-c3csc(NC(C)C)n3)nc2c1,EC50,Hepatitis C virus,10 nM
same,IC50,[3],3 nM
C=C[C@@H]1C[C@]1(NC(=O)[C@@H]1C[C@@H](Oc2cc(-c3csc(NC(C)C)n3)nc3cc(OC)ccc23)CN1C(=O)[C@@H](NC(=O)OC1CCCC1)C(C)(C)C)P(=O)(O)Cc1ccccc1OC,EC50,Hepatitis C virus,47 nM
same,IC50,[3],6 nM
C=C[C@@H]1C[C@]1(NC(=O)[C@@H]1C[C@@H](Oc2cc(-c3csc(NC(C)C)n3)nc3cc(OC)ccc23)CN1C(=O)[C@@H](NC(=O)OC1CCCC1)C(C)(C)C)P(=O)(O)Cc1ccccc1,bioavailability,[1],4.6%
same,clearance,[4],36.7 mL/min/kg
same,EC50,Hepatitis C virus,180 nM
same,IC50,[3],9 nM
same,clearance,[7],10.7 mL/min/kg
COc1ccc2c(O[C@@H]3C[C@H]4C(=O)N[C@]5(P(=O)(O)Cc6ccccc6Cl)C[C@H]5CCCCCCC[C@H](NC(=O)OC5CCCC5)C(=O)N4C3)cc(-c3csc(NC(C)C)n3)nc2c1,clearance,[2],3.17 mL/min/kg
same,EC50,Hepatitis C virus,5 nM
same,IC50,[3],3 nM
